Assay results published in patent US8288554B2, “Pyridin-3-yl derivatives as immunomodulating agents” (Actelion Pharmaceuticals Ltd., priority 2006, dated 2012).

Tests used:
[1] = target: recombinant human S1P1 receptor (Homo sapiens, UniProt P21453); experiment: GTPγS assay to determine EC50 values; assay type: biochemical; conditions: agonist-induced 35S-GTPγS binding, membranes of CHO cells expressing recombinant human S1P1 receptor
Description: GTPγS binding assays are performed in 96 well microtiter plates (Nunc, 442587) in a final volume of 200 μl, using membrane preparations of CHO cells expressing recombinant human S1P1 receptor. Assay conditions are 20 mM Hepes (Fluka, 54461), 100 mM NaCl (Fluka, 71378), 5 mM MgCl2 (Fluka, 63064), 0.1% BSA (Calbiochem, 126609), 1 μM GDP (Sigma, G-7127), 2.5% DMSO (Fluka, 41644), […] ^35S-GTPγS (Amersham Biosciences, SJ1320). The pH is 7.4. Test compounds are dissolved and diluted in 100% DMSO and pre-incubated at room temperature for 30 min in 150 μl of the above assay buffer, in the absence of ^35S-GTPγS. After addition of 50 μl of ^35S-GTPγS, the assay is incubated for 1 h at rt. The assay is terminated by transfer of the reaction mixture to a Multiscreen plate (Millipore, MAHFC1H60) using a cell harvester from Packard Biosciences, and the plates are washed with ice-cold 10 mM Na2HPO4/NaH2PO4 (70%/30%), dried, sealed at the bottom and, after addition of 25 μl MicroScint20 (Packard Biosciences, order#6013621), sealed on the top. Membrane-bound ^35S-GTPγS is measured with a TopCount from Packard Biosciences.
EC50 is the concentration of agonist inducing 50% of the maximal specific ^35S-GTPγS binding. Specific binding is determined by subtracting non-specific binding from maximal binding. Maximal binding is the amount of cpm bound to the Multiscreen plate in the presence of 10 μM of S1P. Non-specific binding is the amount of binding in the absence of an agonist in the assay.

circulating lymphocytes = experiment: Assessment of in vivo efficacy: circulating lymphocytes after oral administration; parameters: species or system rat; conditions: 6 h after oral administration of 10 mg/kg, normotensive male Wistar rats, compared to vehicle group
Description: The efficacy of the compounds of Formula (I) is assessed by measuring the circulating lymphocytes after oral administration of 3 to 30 mg/kg of a compound of Formula (I) to normotensive male Wistar rats. The animals are housed in climate-controlled conditions with a 12 h-light/dark cycle, and have free access to normal rat chow and drinking water. Blood is collected before and 3, 6 and 24 h after drug administration. Full blood is subjected to hematology using Advia Hematology system (Bayer Diagnostics, Zurich, Switzerland).
All data are presented as mean±SEM. Statistical analyses are performed by analysis of variance (ANOVA) using Statistica (StatSoft) and the Student-Newman-Keuls procedure for multiple comparisons. The null hypothesis is rejected when p<0.05.
Lymphocyte counts 6 h after oral administration have been measured for 6 exemplified compounds and are in the range of −77% to −61% with an average of −68%.

Sequence of recombinant human S1P1 receptor (P21453 whole entry): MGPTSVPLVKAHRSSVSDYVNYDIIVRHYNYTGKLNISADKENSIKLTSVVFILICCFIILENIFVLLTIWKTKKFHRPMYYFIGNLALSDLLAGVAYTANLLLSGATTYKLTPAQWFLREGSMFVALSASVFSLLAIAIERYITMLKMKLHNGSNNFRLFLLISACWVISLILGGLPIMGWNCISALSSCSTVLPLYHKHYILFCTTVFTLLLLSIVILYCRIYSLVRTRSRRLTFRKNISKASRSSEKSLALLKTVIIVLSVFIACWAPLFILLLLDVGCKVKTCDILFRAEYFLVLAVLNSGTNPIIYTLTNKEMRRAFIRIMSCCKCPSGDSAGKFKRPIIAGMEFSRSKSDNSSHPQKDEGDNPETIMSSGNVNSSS

Compound	EC50 [1]	Lymphocyte counts (circulating lymphocytes)
CCc1cc(-c2noc(-c3cnc(OC(C)C)c(C)c3)n2)cc(C)c1OC[C@@H](O)CNC(=O)CO [Example 88]	0.1 nM	–
CCc1cc(-c2noc(-c3cnc(CC(C)C)c(C)c3)n2)cc(C)c1OCC(O)CNC(=O)CO (racemic) [Example 8, N—((RS)-3-{2-Ethyl-4-[5-(6-isobutyl-5-methyl-pyridin-3-yl)-[1,2,4]oxadiazol-3-yl]-6-methyl-phenoxy}-2-hydroxy-propyl)-2-hydroxy-acetamide]	–	−61%
Cc1cc(-c2nc(-c3cc(C)c(OCC(O)CNC(=O)CO)c(C)c3)no2)cnc1CC(C)C (racemic) [Example 5, 2-Hydroxy-N—((RS)-2-hydroxy-3-{4-[5-(6-isobutyl-5-methyl-pyridin-3-yl)-[1,2,4]oxadiazol-3-yl]-2,6-dimethyl-phenoxy}-propyl)-acetamide]	2.7 nM	–
Cc1cc(-c2noc(-c3cnc(CC(C)C)c(CC(C)C)c3)n2)cc(C)c1OCC(O)CO (racemic) [Example 12, (RS)-3-{4-[5-(5,6-Diisobutyl-pyridin-3-yl)-[1,2,4]oxadiazol-3-yl]-2,6-dimethyl-phenoxy}-propane-1,2-diol]	–	−61%
Cc1cc(-c2noc(-c3cnc(OC(C)C)c(Cl)c3)n2)cc(C)c1OCC(O)CNC(=O)CO (racemic) [Example 3, N—((RS)-3-{4-[5-(5-chloro-6-isopropoxy-pyridin-3-yl)-[1,2,4]oxadiazol-3-yl]-2,6-dimethyl-phenoxy}-2-hydroxy-propyl)-2-hydroxy-acetamide]	–	−71%

More lines, main results first:

EC50 [1]	Compound	Lymphocyte counts (circulating lymphocytes)
4 nM	COc1cc(-c2noc(-c3cnc(CC(C)C)c(C)c3)n2)cc(Cl)c1OCC(O)CNC(=O)CO (stereo not shown) [Example 43]	–
0.6 nM	Cc1cc(-c2nc(-c3cc(C)c(OCC(O)CNC(=O)CO)c(Cl)c3)no2)cnc1CC(C)C (stereo not shown) [Example 42]	–
5.1 nM	CCc1cc(-c2nc(-c3cnc(OC(C)C)c(C)c3)no2)cc(C)c1OC[C@@H](O)CO [Example 92]	–
0.6 nM	Cc1cc(-c2noc(-c3cnc(OC(C)C)c(Cl)c3)n2)cc(C)c1OCC(O)CO (racemic) [Example 1, (RS)-3-{4-[5-(5-chloro-6-isopropoxy-pyridin-3-yl)-[1,2,4]oxadiazol-3-yl]-2,6-dimethyl-phenoxy}-propane-1,2-diol]	–
3.5 nM	CCc1cc(-c2noc(-c3cnc(OC(C)C)c(C)c3)n2)cc(C)c1CCC(=O)NCCO [Example 89, 3-{2-Ethyl-4-[5-(6-isopropoxy-5-methyl-pyridin-3-yl)-[1,2,4]oxadiazol-3-yl]-6-methyl-phenyl}-N-(2-hydroxy-ethyl)-propionamide]	–
